In patent US6503881B2 (priority 1996, dated 2003):
Where two headings read alike, the source gives them in different places.

System: bacteria

With I L K K W P W W P W R R M [MBI 11D12H] the MIC (A. calcoaceticus AC001) was >64 µg/mL, the MIC (E. cloacae ECL007) was >64 µg/mL and the MIC (E. coli ECO003) was 64 µg/mL. The MIC (E. faecalis EFS004) was 16 µg/mL, the MIC (K. pneumoniae KP002) was >64 µg/mL and the MIC (P. aeruginosa PA004) was >64 µg/mL. For the same substance, the MIC (S. aureus SA014) was 16 µg/mL, the MIC (S. maltophilia SMA002) was >64 µg/mL and the MIC (S. marcescens SMS004) was >64 µg/mL.

In the case of I L K K W P W W P W R R [MBI 11G7ACN], the MIC (A. calcoaceticus AC002) is reported as 4 µg/mL, the MIC (E. cloacae ECL007) is reported as >32 µg/mL and the MIC (E. coli ECO002) is reported as 16 µg/mL. The MIC (E. faecalis EFS008) was 32 µg/mL, the MIC (E. faecium EFM001) was 8 µg/mL and the MIC (K. pneumoniae KP002) was >32 µg/mL. The MIC (P. aeruginosa PA006) was >32 µg/mL, the MIC (S. aureus SA010) was 1 µg/mL and the MIC (S. epidermidis SE002) was 4 µg/mL. For the same substance, the MIC (S. maltophilia SMA001) was 32 µg/mL and the MIC (S. marcescens SMS004) was >32 µg/mL.

For I L K K W P W W P W R R k [MBI 11E2CN], the MIC (A. calcoaceticus AC002) was 4 µg/mL, the MIC (E. cloacae ECL007) was >128 µg/mL and the MIC (E. coli ECO002) was 8 µg/mL. The MIC (E. faecalis EFS002) was 32 µg/mL, the MIC (E. faecium EFM001) was 16 µg/mL and the MIC (K. pneumoniae KP002) was 64 µg/mL. For the same substance, the MIC (P. aeruginosa PA001) was >128 µg/mL, the MIC (S. aureus SA016) was 2 µg/mL and the MIC (S. epidermidis SE010) was 4 µg/mL. The MIC (S. maltophilia SMA001) was 64 µg/mL and the MIC (S. marcescens SMS004) was >128 µg/mL.

I L K K W P W W W R K [MBI 11D15CN] was tested, and the MIC (E. faecalis EFS002) was 32 µg/mL, the MIC (E. faecium EFM003) was 4 µg/mL and the MIC (S. aureus SA009) was 8 µg/mL.

For I L K K W P W W W R R K [MBI 11G5CN], the MIC (A. calcoaceticus AC002) was 4 µg/mL, the MIC (E. cloacae ECL007) was >128 µg/mL and the MIC (E. coli ECO003) was 16 µg/mL. For the same substance, the MIC (E. faecalis EFS002) was 16 µg/mL, the MIC (E. faecium EFM002) was 8 µg/mL and the MIC (K. pneumoniae KP001) was >128 µg/mL. The MIC (P. aeruginosa PA003) was >128 µg/mL, the MIC (S. aureus SA012) was 4 µg/mL and the MIC (S. epidermidis SE002) was 2 µg/mL. The MIC (S. maltophilia SMA002) was 64 µg/mL and the MIC (S. marcescens SMS004) was >128 µg/mL.

With I L K K W P W [MBI 11D10M8] the MIC (E. faecalis EFS002) was 32 µg/mL, the MIC (E. faecium EFM003) was 32 µg/mL and the MIC (S. aureus SA008) was 32 µg/mL.

For I L K K W V W W V W R R K [MBI 11F1CN], the MIC (E. cloacae ECL007) was >128 µg/mL, the MIC (E. coli ECO003) was 8 µg/mL and the MIC (E. faecalis EFS004) was 16 µg/mL. The MIC (E. faecium EFM003) was 2 µg/mL, the MIC (K. pneumoniae KP002) was 32 µg/mL and the MIC (P. aeruginosa PA004) was 64 µg/mL. The MIC (S. aureus SA009) was 2 µg/mL, the MIC (S. marcescens SBSM1) was >128 µg/mL and the MIC (S. marcescens SMS003) was >128 µg/mL.

For I L K K W W W P W R K [MBI 11D14CN], the MIC (E. faecalis EFS002) was 32 µg/mL, the MIC (E. faecium EFM003) was 1 µg/mL and the MIC (S. aureus SA009) was 4 µg/mL.

In the case of I L K K W W W P W R R K [MBI 11G4CN], the MIC (A. calcoaceticus AC002) is reported as 4 µg/mL, the MIC (E. cloacae ECL007) is reported as >128 µg/mL and the MIC (E. coli ECO005) is reported as 32 µg/mL. For the same substance, the MIC (E. faecalis EFS002) was 32 µg/mL, the MIC (E. faecium EFM003) was 1 µg/mL and the MIC (K. pneumoniae KP001) was >128 µg/mL. The MIC (P. aeruginosa PA004) was >128 µg/mL, the MIC (S. aureus SA004) was 1 µg/mL and the MIC (S. epidermidis SE010) was 2 µg/mL. For the same substance, the MIC (S. maltophilia SMA002) was 64 µg/mL and the MIC (S. marcescens SMS003) was >128 µg/mL.

I L K K Y P W Y P W R R K [MBI 11A5CN] was tested, and the MIC (A. calcoaceticus AC001) was >128 µg/mL, the MIC (E. cloacae ECL007) was >128 µg/mL and the MIC (E. coli ECO003) was 128 µg/mL. For the same substance, the MIC (E. faecalis EFS002) was 32 µg/mL, the MIC (E. faecium EFM003) was 4 µg/mL and the MIC (K. pneumoniae KP001) was >128 µg/mL. For the same substance, the MIC (P. aeruginosa PA003) was >128 µg/mL, the MIC (S. aureus SA002) was 6 µg/mL and the MIC (S. maltophilia SMA002) was >128 µg/mL. For the same substance, the MIC (S. marcescens SMS003) was >128 µg/mL.

With I L K W P W W P W R K [MBI 11B5CN] the MIC (A. calcoaceticus AC002, agarose dilution) was 4 µg/mL, the MIC (E. cloacae ECL007, agarose dilution) was >128 µg/mL and the MIC (E. coli ECO005, agarose dilution) was 16 µg/mL. It also gave an MIC (E. faecalis EFS001, agarose dilution) of 2 µg/mL, an MIC (E. faecalis EFS002) of 16 µg/mL and an MIC (E. faecalis EFS008, agarose dilution) of 8 µg/mL. For the same substance, the MIC (E. faecium EFM002) was 1 µg/mL, the MIC (K. pneumoniae KP001, agarose dilution) was 16 µg/mL and the MIC (P. aeruginosa PA004, agarose dilution) was >128 µg/mL. For the same substance, the MIC (S. aureus SA005) was 2 µg/mL, the MIC (S. aureus SA014, agarose dilution) was 2 µg/mL and the MIC (S. aureus SA093, agarose dilution) was 1 µg/mL. The MIC (S. epidermidis SE010, agarose dilution) was 1 µg/mL, the MIC (S. maltophilia SMA002, agarose dilution) was 64 µg/mL and the MIC (S. marcescens SMS003, agarose dilution) was >128 µg/mL.

With I L K W P W W P W R R K [MBI 11B3CN] the MIC (A. calcoaceticus AC001) was 64 µg/mL, the MIC (E. cloacae ECL007) was >128 µg/mL and the MIC (E. coli ECO002) was 16 µg/mL. The MIC (E. faecalis EFS001) was 16 µg/mL, the MIC (E. faecium EFM001) was 8 µg/mL and the MIC (K. pneumoniae KP002) was 64 µg/mL. The MIC (P. aeruginosa PA003) was >128 µg/mL, the MIC (S. aureus SA010) was 4 µg/mL and the MIC (S. maltophilia SMA002) was 32 µg/mL. For the same substance, the MIC (S. marcescens SMS004) was >128 µg/mL.

Work on I L P W K W P W W P W R R [MBI 10A] yielded an MIC (E. faecalis EFS004) of 16 µg/mL, an MIC (E. faecium EFM003) of 8 µg/mL and an MIC (S. aureus SA010) of 8 µg/mL.
